The values that follow come from patent US11261192B2, “Substituted 1,2-dihydro-3H-pyrazolo[3,4-D]pyrimidin-3-ones” (Recurium IP Holdings, LLC, priority 2018, dated 2022).

Read-outs that look alike come from different tables or passages of the source.

One assay concerns the target Wee1 kinase (Homo sapiens, UniProt P30291). As to the kind of experiment: Wee1 Binding Assay (FRET). How it is done: Wee 1 kinase was determined by using Fluorescence Resonance Energy Transfer (FRET) assay. […] The plate was shaken for 30 seconds, incubated for 60 min at RT, and recorded on fluorescence plate reader.
For the next assay, the system named is H23 cells. Kind of assay: H23 Cellular Proliferation Assay (CellTiter-Glo). Format: cell-based. The conditions noted are these: Homo sapiens, NCI-H23, 96 h, 4 days, read-out: H23 CTG IC50. How it is done: H23 Cellular Proliferation Assay
Cells were treated with compounds diluted in DMSO and a 9 point 5-fold serial dilutions. Plates were placed in 37° C., 5% CO2 for to incubate for 4 days. Before they were developed by adding 100 μL of CellTiter-Glo reagent (Promega) to the assay plate, plates were shaken briefly for 2 mins and allowed to incubate at rt for 10 mins. The plates are read with a M5e plate reader according to CellTiter-Glo protocol. The GraphPad Prism software is used to get IC50 values.

Chain of Wee1 kinase (P30291 whole entry): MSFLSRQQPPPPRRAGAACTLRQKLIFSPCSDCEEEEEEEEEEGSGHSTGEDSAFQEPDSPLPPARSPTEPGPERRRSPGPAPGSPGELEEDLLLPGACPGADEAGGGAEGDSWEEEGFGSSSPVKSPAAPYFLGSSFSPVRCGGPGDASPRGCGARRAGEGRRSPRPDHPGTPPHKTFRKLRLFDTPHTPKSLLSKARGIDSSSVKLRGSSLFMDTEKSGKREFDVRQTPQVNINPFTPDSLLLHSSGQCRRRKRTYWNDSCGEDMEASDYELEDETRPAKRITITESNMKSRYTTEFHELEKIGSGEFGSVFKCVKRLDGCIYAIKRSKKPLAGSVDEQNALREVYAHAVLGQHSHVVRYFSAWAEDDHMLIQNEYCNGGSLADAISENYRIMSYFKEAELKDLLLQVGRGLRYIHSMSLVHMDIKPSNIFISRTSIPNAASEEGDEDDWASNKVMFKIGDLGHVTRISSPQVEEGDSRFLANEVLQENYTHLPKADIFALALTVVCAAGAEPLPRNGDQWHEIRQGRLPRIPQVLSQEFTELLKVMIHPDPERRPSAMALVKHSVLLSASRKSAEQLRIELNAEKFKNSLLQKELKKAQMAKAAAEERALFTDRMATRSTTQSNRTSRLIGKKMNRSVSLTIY

As to `C=CCn1c(=O)c2cnc(Nc3ccc(N4CCN(C)CC4)cc3)nc2n1-c1ccc2c(n1)[C@](C)(O)CC2` (single isomer, unassigned) [Example 2B], the half-maximal inhibitory concentration (IC50) on Wee1 kinase was under 10 nM; in the assay on H23 cells, 100 to 1000 nM.

With `C=CCn1c(=O)c2cnc(Nc3ccc4c(c3)CNCC43CC3)nc2n1-c1ccc2c(n1)[C@](O)(C(F)(F)F)CC2` (single isomer, unassigned) [Example 30A], the IC50 on Wee1 kinase is under 10 nM; in the assay on H23 cells, 100 to 1000 nM.

For `C=CCn1c(=O)c2cnc(Nc3ccc(N4CCN(C)CC4)cc3)nc2n1-c1ccc2c(n1)[C@](O)(CC)CC2` (single isomer, unassigned) [Example 9A], the IC50 is under 10 nM on Wee1 kinase and 100 to 1000 nM in the assay with H23 cells.

On to `C=CCn1c(=O)c2cnc(Nc3ccc(N4CCN(C)CC4)cc3)nc2n1-c1ccc2c(n1)[C@](C)(O)CO2` (single isomer, unassigned) [Example 4B], for which the concentration for half-maximal inhibition (IC50) was under 10 nM at Wee1 kinase and over 1000 nM with H23 cells.

In the case of `C=CCn1c(=O)c2cnc(Nc3ccc(N4CCN(C)CC4)cc3)nc2n1-c1ccc2c(n1)[C@@H](O)CC2` (single isomer, unassigned) [Example 1A], the IC50 is under 10 nM on Wee1 kinase and over 1000 nM in the assay with H23 cells.

In the case of `C=CCn1c(=O)c2cnc(Nc3ccc(N4CCN(C)CC4)cc3)nc2n1-c1ccc2c(n1)[C@@](O)(C1CC1)CC2` (single isomer, unassigned) [Example 16B], the IC50 is under 10 nM on Wee1 kinase and 100 to 1000 nM in the assay with H23 cells.

Regarding `C=CCn1c(=O)c2cnc(Nc3ccc(N4CCN(C)CC4)c(F)c3)nc2n1-c1ccc2c(n1)[C@@](C)(O)CC2` (single isomer, unassigned) [Example 11A], the concentration for half-maximal inhibition (IC50) is under 10 nM at Wee1 kinase (FRET, Wee1 kinase 2 nM, tracer 178 50 nM, 60 min at RT, read-out: Wee1 enzymatic IC50) and over 1000 nM in the assay on H23 cells.
